One data set has as its target TYK2 (h) (Homo sapiens (Human), UniProt P29597). Nature of the data set: TYK2 kinase assay (33P-ATP filter binding, Millipore). Type of data set: biochemical. As to the method: (§1) Kinase assays can be performed by measurement of incorporation of γ-^33P ATP into immobilized myelin basic protein (MBP). High binding white 384 well plates (Greiner) are coated with MBP (Sigma #M−1891) by incubation of 60 μL/well of 20 μg/mL MBP in Tris-buffered saline (TBS; 50 mM Tris pH 8.0, 138 mM NaCl, 2.7 mM KCl) for 24 h at 4° C. Plates are washed 3× with 100 μL TBS. Kinase reactions are carried out in a total volume of 34 μL in kinase buffer (5 mM Hepes pH 7.6, 15 mM NaCl, 0.01% bovine gamma globulin (Sigma #I-5506), 10 mM MgCl2, 1 mM DTT, 0.02% TritonX-100). Compound dilutions are performed in DMSO and added to assay wells to a final DMSO concentration of 1%. Each data point is measured in duplicate, and at least two duplicate assays are performed for each individual compound determination. Enzyme is added to final concentrations of 10 nM or 20 nM, for example. A mixture of unlabeled ATP and γ-^33P ATP is added to start the reaction (2×10^6 cpm of γ-^33P ATP per well (3000 Ci/mmole) and 10 μM unlabeled ATP, typically. The reactions are carried out for 1 h at room temperature with shaking. Plates are washed 7× with TBS, followed by the addition of 50 μL/well scintillation fluid (Wallac). Plates are read using a Wallac Trilux counter. This is only one format of such assays; various other formats are possible, as known to one skilled in the art.
(§2) The above assay procedure can be used to determine the IC50 for inhibition and/or the inhibition constant, Ki. The IC50 is defined as the concentration of compound required to reduce the enzyme activity by 50% under the condition of the assay. The IC50 value is estimated by preparing a 10 point curve using a 1/2 log dilution series (for example, a typical curve may be prepared using the following compound concentrations: 3 μM, 1 μM, 0.3 μM, 0.1 μM, 0.03 μM, 0.01 μM, 0.003 μM, 0.001 μM, 0.0003 μM and 0 μM).
(§3) The kinase assays described herein were performed at Millipore UK Ltd, Dundee Technology Park, Dundee DD2 1SW, UK.

In another data set the target is JAK1 (h) (Homo sapiens (Human), UniProt P23458). Put plainly: JAK1 kinase assay (33P-ATP filter binding, Millipore). Type of data set: biochemical. In a few lines: (§4)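 Radiometric assay of γ-33P-ATP incorporation into plate-immobilised MBP; kinase buffer pH 7.6 with 10 mM MgCl2, 10 μM unlabelled ATP typical, enzyme 10 or 20 nM final, 1% DMSO. Reactions ran 1 h at room temperature before scintillation counting. IC50 from 10-point half-log dilution curve, duplicates.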

The nature of data set [1]: Compound stability in human liver microsomes. To be noted: for half-life at 5 μM: compound 5 μM, NADPH 1.0 mM, 37° C.; for CLint scaled at 5 μM: in vivo CLint extrapolated. Type of data set: in vitro ADME. Put shortly:
(§5)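 Compounds (5 μM, 0.05% DMSO) were incubated at 37° C with liver microsomes (0.5 mg protein/mL) and NADPH (1.0 mM) in 100 mM potassium phosphate, pH 7.4. Samples taken at 0–60 min were quenched with cold acetonitrile and analysed by LC/MS/MS. Remaining compound was expressed as % of the zero-time value, and CLint was extrapolated.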

The target of a further data set is FLT3 (h) (Homo sapiens (Human), UniProt P36888). Put plainly: FLT3 kinase assay (33P-ATP filter binding, Millipore). Type of data set: biochemical. As to the method:
as §1, with “art. […]” for “art.”

The nature of data set [2]: Pharmacokinetics after intravenous and oral administration in rats. The conditions noted are these: for Clearance (CL) after iv dosing / AUC(0-t) / half-life / Vd: dose 1 mg/kg (Ex. 27: 0.72 mg/kg), iv dosing; for F: oral bioavailability; for AUC(0-t) / half-life / Vd: rat, plasma; for Vd: read-out: Vss. The data set is classed as in vivo. Put shortly:
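Rats were dosed 1 or 2 mg/kg IV or 5 or 10 mg/kg orally, as water solution, HPMC/Tween 80, DMSO/saline, MC suspension or capsule. Plasma was sampled from 0.083 or 0.25 h up to 24 h and quantified by LC/MS/MS in MRM mode with ESI.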

A short description of data set [3]: Compound stability in rat liver microsomes. The data set is classed as in vitro ADME. In a few lines:
as §5

The target of the next data set is Aurora-A (h) (Homo sapiens (Human), UniProt O14965). Nature of the data set: Aurora-A kinase assay (33P-ATP filter binding, Millipore). Type of data set: biochemical. As to the method: as §1, with “art. […]” for “art.”
Another data set deals with JAK3 (h) (Homo sapiens (Human), UniProt P52333). Nature of the data set: JAK3 kinase assay (33P-ATP filter binding, Millipore). Type of data set: biochemical. As to the method:
as §1, §2, §3

The next data set concerns the target JAK2 (h) (Homo sapiens (Human), UniProt O60674). Put plainly: JAK2 kinase assay (33P-ATP filter binding, Millipore). The data set is classed as biochemical. In a few lines: as §4
[4] abbreviates: human, liver microsomes, pH 7.4, Human liver microsomes 0.5 mg protein/mL.
[5] abbreviates: human, liver microsomes, pH 7.4, Human liver microsomes.
The mark [6] stands for this setting: rat, liver microsomes, pH 7.4, Rat liver microsomes 0.5 mg protein/mL, compound 5 μM, NADPH 1.0 mM, 37° C.
[7] abbreviates: rat, liver microsomes, pH 7.4, Rat liver microsomes, in vivo CLint extrapolated.
Setting [8] is: pH 7.4, Human liver microsomes 0.5 mg protein/mL.
The mark [9] stands for this setting: pH 7.4, Rat liver microsomes 0.5 mg protein/mL, compound 5 μM, NADPH 1.0 mM, 37° C.
Setting [10] is: pH 7.4, Rat liver microsomes, in vivo CLint extrapolated.

Sequence of JAK3 (h) (P52333 whole entry): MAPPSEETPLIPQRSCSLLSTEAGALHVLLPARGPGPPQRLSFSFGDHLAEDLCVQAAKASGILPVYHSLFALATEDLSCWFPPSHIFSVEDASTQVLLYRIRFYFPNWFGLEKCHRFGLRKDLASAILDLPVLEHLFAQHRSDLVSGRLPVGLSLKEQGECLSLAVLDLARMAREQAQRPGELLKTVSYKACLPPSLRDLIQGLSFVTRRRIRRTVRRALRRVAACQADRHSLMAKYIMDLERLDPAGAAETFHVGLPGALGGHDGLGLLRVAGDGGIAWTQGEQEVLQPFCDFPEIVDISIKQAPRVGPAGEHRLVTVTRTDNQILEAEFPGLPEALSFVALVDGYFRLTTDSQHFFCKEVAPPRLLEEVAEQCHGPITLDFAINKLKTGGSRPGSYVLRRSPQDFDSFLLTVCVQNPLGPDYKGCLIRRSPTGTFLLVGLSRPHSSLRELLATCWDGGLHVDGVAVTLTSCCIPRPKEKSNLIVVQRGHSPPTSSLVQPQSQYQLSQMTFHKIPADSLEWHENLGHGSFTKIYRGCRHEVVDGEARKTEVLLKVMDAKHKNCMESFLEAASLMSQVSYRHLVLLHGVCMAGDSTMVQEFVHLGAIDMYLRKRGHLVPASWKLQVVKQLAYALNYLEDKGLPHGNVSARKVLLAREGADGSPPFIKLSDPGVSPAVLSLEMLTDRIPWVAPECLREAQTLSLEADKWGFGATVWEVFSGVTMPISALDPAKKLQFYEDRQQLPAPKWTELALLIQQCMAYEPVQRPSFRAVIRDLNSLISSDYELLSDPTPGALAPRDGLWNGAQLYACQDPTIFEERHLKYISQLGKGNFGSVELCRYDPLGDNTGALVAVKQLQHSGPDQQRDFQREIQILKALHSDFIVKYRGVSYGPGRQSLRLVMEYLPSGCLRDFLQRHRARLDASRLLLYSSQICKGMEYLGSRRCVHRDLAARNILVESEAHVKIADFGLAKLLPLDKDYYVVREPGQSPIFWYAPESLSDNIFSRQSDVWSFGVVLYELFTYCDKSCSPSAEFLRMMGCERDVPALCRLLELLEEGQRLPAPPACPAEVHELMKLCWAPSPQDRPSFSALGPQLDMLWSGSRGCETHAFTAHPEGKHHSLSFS
Sequence of JAK2 (h) (O60674 whole entry): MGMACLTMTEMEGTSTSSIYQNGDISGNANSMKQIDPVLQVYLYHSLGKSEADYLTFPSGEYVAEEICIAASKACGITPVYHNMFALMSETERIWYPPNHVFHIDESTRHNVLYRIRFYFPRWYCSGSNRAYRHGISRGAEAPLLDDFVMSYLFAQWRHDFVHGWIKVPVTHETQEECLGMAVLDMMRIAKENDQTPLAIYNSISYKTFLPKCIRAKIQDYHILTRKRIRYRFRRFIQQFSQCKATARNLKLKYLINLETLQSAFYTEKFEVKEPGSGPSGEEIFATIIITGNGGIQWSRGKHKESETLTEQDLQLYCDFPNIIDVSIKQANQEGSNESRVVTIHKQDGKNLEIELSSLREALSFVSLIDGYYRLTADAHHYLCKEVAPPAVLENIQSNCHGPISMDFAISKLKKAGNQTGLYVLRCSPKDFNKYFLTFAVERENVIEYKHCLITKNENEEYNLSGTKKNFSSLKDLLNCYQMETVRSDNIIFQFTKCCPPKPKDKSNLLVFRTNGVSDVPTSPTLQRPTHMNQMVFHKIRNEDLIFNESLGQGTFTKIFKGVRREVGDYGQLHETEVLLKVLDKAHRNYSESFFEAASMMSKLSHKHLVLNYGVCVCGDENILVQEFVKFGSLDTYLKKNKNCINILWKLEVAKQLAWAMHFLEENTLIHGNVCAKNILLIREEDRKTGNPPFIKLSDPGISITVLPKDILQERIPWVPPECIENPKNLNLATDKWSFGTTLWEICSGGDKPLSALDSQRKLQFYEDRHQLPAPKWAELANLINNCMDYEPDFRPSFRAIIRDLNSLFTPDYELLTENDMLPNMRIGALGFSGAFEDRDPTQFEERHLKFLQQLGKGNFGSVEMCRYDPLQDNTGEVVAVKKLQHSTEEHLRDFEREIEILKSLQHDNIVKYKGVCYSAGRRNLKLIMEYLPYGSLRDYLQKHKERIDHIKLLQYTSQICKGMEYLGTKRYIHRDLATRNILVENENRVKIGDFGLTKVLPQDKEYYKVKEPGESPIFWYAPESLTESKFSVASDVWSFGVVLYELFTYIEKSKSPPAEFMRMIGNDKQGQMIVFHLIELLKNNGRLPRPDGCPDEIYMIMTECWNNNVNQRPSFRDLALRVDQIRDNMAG
Sequence of JAK1 (h) (P23458 whole entry): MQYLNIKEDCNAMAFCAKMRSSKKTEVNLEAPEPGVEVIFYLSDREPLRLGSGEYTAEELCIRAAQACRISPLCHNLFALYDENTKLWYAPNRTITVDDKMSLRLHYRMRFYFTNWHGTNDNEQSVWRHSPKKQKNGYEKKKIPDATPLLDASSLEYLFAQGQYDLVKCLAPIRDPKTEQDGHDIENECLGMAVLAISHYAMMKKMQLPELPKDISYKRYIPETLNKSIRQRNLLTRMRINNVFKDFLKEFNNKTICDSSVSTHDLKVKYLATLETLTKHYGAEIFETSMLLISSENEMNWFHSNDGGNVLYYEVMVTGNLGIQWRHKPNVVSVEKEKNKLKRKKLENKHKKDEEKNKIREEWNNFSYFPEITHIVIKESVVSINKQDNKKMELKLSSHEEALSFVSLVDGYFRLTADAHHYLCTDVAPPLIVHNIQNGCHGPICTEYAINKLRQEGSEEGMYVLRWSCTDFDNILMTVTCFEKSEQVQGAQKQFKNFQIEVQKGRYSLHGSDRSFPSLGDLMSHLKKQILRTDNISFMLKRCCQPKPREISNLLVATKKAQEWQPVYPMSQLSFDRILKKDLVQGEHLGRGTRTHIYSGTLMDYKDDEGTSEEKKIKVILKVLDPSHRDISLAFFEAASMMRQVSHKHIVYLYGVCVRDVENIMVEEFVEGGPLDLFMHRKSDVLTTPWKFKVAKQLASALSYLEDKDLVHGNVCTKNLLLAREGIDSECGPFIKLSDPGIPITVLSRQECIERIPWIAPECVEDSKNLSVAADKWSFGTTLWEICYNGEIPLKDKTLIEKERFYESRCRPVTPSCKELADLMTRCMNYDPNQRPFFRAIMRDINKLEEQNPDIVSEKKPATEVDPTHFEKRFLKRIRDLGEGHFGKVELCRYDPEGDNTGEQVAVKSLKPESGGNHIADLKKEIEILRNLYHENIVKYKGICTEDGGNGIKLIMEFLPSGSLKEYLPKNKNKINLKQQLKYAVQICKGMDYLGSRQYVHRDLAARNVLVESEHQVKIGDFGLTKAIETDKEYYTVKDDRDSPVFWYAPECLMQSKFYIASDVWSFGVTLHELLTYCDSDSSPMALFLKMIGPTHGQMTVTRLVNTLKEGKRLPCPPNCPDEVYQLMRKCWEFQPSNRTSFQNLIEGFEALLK
Sequence of TYK2 (h) (P29597 whole entry): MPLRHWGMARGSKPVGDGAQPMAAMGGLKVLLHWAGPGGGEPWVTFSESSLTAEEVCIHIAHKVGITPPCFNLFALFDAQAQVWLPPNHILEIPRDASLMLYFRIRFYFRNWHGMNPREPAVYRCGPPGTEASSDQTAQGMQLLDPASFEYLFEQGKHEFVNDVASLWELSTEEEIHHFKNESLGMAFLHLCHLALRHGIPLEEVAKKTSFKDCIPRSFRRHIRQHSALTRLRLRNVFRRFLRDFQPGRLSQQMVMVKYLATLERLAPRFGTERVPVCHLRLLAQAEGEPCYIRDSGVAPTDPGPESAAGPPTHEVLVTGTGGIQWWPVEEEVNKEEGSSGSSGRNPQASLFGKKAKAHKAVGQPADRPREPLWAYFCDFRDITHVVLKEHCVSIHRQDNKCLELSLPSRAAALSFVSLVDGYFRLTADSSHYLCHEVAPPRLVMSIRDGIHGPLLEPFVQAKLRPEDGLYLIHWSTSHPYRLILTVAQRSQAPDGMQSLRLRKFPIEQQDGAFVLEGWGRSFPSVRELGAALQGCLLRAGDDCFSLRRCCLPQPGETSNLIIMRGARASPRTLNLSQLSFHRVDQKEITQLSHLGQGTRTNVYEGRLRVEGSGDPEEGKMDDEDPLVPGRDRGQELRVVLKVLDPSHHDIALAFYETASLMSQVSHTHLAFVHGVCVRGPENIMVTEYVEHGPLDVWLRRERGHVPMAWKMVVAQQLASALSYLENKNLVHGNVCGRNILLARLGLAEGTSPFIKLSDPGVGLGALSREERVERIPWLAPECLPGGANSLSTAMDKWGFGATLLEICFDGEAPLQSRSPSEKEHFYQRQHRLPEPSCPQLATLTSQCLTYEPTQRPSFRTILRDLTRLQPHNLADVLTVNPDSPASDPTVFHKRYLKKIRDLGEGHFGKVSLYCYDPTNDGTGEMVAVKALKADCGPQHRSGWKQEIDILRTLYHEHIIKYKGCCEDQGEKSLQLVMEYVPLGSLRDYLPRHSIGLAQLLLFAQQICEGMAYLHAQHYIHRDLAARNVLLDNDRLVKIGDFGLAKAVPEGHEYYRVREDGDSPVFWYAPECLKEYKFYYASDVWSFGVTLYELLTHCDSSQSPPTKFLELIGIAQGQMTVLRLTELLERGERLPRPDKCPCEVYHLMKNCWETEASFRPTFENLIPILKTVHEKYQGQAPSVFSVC
Sequence of Aurora-A (h) (O14965 whole entry): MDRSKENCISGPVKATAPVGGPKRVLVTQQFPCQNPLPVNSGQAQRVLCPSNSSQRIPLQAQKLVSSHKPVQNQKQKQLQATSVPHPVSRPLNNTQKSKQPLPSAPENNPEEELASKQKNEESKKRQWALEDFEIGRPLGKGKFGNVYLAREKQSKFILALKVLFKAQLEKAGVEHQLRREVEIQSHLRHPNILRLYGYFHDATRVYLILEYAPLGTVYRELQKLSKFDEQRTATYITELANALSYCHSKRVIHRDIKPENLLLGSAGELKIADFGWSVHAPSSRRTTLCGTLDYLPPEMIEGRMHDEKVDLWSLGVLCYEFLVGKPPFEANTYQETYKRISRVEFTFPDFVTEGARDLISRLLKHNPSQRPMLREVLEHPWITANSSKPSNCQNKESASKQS

`CC(=O)N1CCC2(CCC(Nc3nc(Nc4cnn(C)c4)ncc3Cl)CC2)CC1` [Ex. 28, 1-(9-((5-chloro-2-((1-methyl-1H-pyrazol-4-yl)amino)pyrimidin-4-yl)amino)-3-azaspiro[5.5]undecan-3-yl)ethanone]: the IC50 on TYK2 (h) stood at 4 nM; on JAK1 (h), 0.9 nM; at FLT3 (h), 16 nM; on Aurora-A (h) it was 22 nM; at JAK3 (h) it was 47 nM; at JAK2 (h), 4 nM. Moreover, the half-life at 5 μM in data set [1] (setting [4]) stood at 268 min; in [3] (setting [6]), 73.6 min. The intrinsic metabolic clearance (CLint scaled) at 5 μM in data set [1] (setting [5]) was 6.49 mL/min/kg; in data set [3] (setting [7]), 33.8 mL/min/kg. The “Clearance (CL) after iv dosing” value in data set [2] is recorded as 4.26 L/h/kg. Moreover, the F in data set [2] was found to be 63.6%. The AUC(0-t) in data set [2] was found to be 251 ng·h/mL. This compound also had a half-life in data set [2] of 39 min. The Vd in [2] was determined as 3.06 L/kg.

As for `Cn1cc(Nc2ncc(Cl)c(NC3CCC4(CC3)CCN(C(=O)CC#N)C4)n2)cn1` (single isomer, unassigned) [Ex. 14A, 3-(8-((5-chloro-2-((1-methyl-1H-pyrazol-4-yl)amino)pyrimidin-4-yl)amino)-2-azaspiro[4.5]decan-2-yl)-3-oxopropanenitrile], the IC50 on TYK2 (h) turned out to be 1 nM; at JAK1 (h) it was 0.8 nM; on JAK3 (h), 39 nM; on JAK2 (h), 5 nM. The compound further gave a half-life at 5 μM in data set [1] (setting [4]) of 203 min. Further, the CLint scaled at 5 μM in [1] (setting [5]) was 8.55 mL/min/kg. Moreover, the T1/2 in data set [3] (Rat liver microsomes 0.5 mg protein/mL, compound 5 μM, NADPH 1.0 mM, 37° C.) worked out at 10.60 min. Further, the CLint in data set [3] (Rat liver microsomes, in vivo CLint extrapolated) is reported as 234.31 mL/min/kg.

Regarding `Cn1cc(Nc2ncc(Cl)c(NC3CC4CN(S(C)(=O)=O)CC4C3)n2)cn1` (centres unmarked) [Ex. 31, 5-chloro-N^2-(1-methyl-1H-pyrazol-4-yl)-N^4-(2-(methylsulfonyl)octahydrocyclopenta[c]pyrrol-5-yl)pyrimidine-2,4-diamine], the IC50 at TYK2 (h) is 18 nM; at JAK1 (h) it was 1 nM; on FLT3 (h) it was 134 nM; at Aurora-A (h), 4 nM; at JAK3 (h) it was 178 nM; on JAK2 (h), 12 nM. Besides, the half-life at 5 μM in [1] (setting [8]) stood at 67.2 min; in data set [3] (setting [9]), 13.2 min. Also, the intrinsic clearance (CLint scaled) at 5 μM in data set [1] (pH 7.4, Human liver microsomes) was 25.9 mL/min/kg; in [3] (setting [10]), 188 mL/min/kg. In addition, the “Clearance (CL) after iv dosing” value in [2] is 3.67 L/h/kg. Moreover, the F in [2] stood at 25.7%. The compound further displayed an AUC(0-t) in data set [2] of 272 ng·h/mL. Besides, the half-life in data set [2] was 39.6 min. In addition, the Vd in data set [2] was 2.06 L/kg.

Regarding `Cn1cc(Nc2ncc(Cl)c(NC3CC4CN(C(=O)CC#N)CC4C3)n2)cn1` (centres unmarked) [Ex. 12, 3-(5-((5-chloro-2-((1-methyl-1H-pyrazol-4-yl)amino)pyrimidin-4-yl)amino)hexahydrocyclopenta[c]pyrrol-2(1H)-yl)-3-oxopropanenitrile], the half-maximal inhibitory concentration (IC50) on TYK2 (h) turned out to be 7 nM; at JAK1 (h), 1 nM; at JAK3 (h), 359 nM; at JAK2 (h), 18 nM. Moreover, the half-life at 5 μM in data set [1] (setting [8]) worked out at 187 min; in [3] (setting [9]), 12 min. Besides, the intrinsic metabolic clearance (CLint scaled) at 5 μM is 9.3 mL/min/kg in data set [1] (pH 7.4, Human liver microsomes) and 208 mL/min/kg in data set [3] (setting [10]). For the same compound, in data set [2], the “Clearance (CL) after iv dosing” value is on record as 7.26 L/h/kg. Besides, the F in data set [2] is 39.2%. The AUC(0-t) in data set [2] stood at 143 ng·h/mL. The compound further showed a half-life in data set [2] of 14.4 min. Further, the Vd in [2] turned out to be 1.75 L/kg.

Compound `Cn1cc(Nc2ncc(Cl)c(NC3CCC4(CC3)CCN(c3ccc(C#N)cn3)CC4)n2)cn1` [Ex. 27, 6-(9-((5-chloro-2-((1-methyl-1H-pyrazol-4-yl)amino)pyrimidin-4-yl)amino)-3-azaspiro[5.5]undecan-3-yl)nicotinonitrile] had a concentration for half-maximal inhibition (IC50) at JAK1 (h) of 4 nM. Further, in [1] (setting [4]), the half-life at 5 μM was 21.8 min. Moreover, in data set [1] (setting [5]), the CLint scaled at 5 μM is 79.7 mL/min/kg. In data set [2], the “Clearance (CL) after iv dosing” value was 1.67 L/h/kg, the F was found to be 15.0%, the AUC(0-t) amounted to 452 ng·h/mL and the half-life is 46.2 min. Moreover, the Vd in data set [2] amounted to 1.74 L/kg. Moreover, in [3] (setting [6]), the half-life at 5 μM worked out at 9.2 min. Further, the CLint scaled at 5 μM in data set [3] (setting [7]) is 270 mL/min/kg. The half-maximal inhibitory concentration (IC50) at JAK2 (h) stood at 23 nM.

The record behind these values is patent US9403801B2 (Calitor Sciences, LLC, priority 2014, dated 2016).
